Laboratory results: patent publication US20080026996A1, “Selective Vpac2 Receptor Reptide Agonists” (ELI LILLY AND COMPANY, priority 2004, published 2008)
Where a SMILES comes first, the peptide text is derived from it. Where no end group is shown, it is not given here. [ ]: non-standard residue; d: D form. The star is where a group is joined. Hexanoyl = CCCCCC(=O)*; Aib = CC(C)(N)C(=O)O

Tests used:
human VPAC2 [1] = molecular target: T1, human VPAC2 (Homo sapiens, UniProt P41587); assay: Alpha screen cAMP in vitro potency, human VPAC2 receptor; type: cell-based; details: cAMP generation; single result from two analyses performed in a single run; read-out: Human VPAC2 Receptor: Alpha Screen EC50
T1 construct: expressed in transfected cells
T1 sequence (P41587 24-438): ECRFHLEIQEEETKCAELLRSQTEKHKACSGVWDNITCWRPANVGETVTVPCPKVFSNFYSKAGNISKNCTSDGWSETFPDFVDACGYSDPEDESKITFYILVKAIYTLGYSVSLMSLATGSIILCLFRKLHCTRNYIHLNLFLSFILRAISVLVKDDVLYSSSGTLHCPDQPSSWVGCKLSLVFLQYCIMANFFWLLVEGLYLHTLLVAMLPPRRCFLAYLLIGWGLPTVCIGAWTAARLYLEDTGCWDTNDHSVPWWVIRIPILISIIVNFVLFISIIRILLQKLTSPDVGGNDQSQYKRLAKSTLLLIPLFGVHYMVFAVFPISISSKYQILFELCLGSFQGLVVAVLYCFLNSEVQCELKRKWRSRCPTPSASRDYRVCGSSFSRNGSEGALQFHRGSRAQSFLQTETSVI
How it was run: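 This followed a 60 min stimulation of 50,000 enzyme-free-dissociated cells per point with acceptor beads in stimulation buffer.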

human VPAC2 [2] = molecular target: T1, human VPAC2; assay: Filter binding assay, membranes of stable VPAC2 cell line, 125I-labeled VIP tracer (Table 2); details: read-out: Human VPAC2 Receptor Binding
How it was run: (§1)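 Competition binding of agonists against radiotracer on receptor membranes (2.5 μg) in 25 mM HEPES pH 7.4 with 0.5% protease-free BSA, about 40000 cpm tracer, 1 hour with shaking. Bound tracer was separated by filtration on PEI-presoaked, BSA-blocked glass-fibre filters, washed and counted by scintillation.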

[3] = Rat serum stability studies (remaining active peptide by DiscoveRx cAMP on CHO-VPAC2 cells); type: in vitro ADME
How it was run: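 Rat serum, 18 h: +aprotinin aliquot at 4° C, no-aprotinin aliquot at 37° C. Then 30 min RT step, supernatant removed, 1 h shaking at 300 rpm. DiscoveRx cAMP kit on CHO-VPAC2; EC50 from cAMP data vs standards.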

human VPAC1 = molecular target: T2, human VPAC1 (Homo sapiens, UniProt P32241); assay: Filter binding assay, membranes of cells transiently transfected with human VPAC1, 125I-labeled VIP tracer (Table 2); parameters: expressed in transfected cells; details: read-out: Human VPAC1 Receptor Binding
T2 sequence (P32241 31-457): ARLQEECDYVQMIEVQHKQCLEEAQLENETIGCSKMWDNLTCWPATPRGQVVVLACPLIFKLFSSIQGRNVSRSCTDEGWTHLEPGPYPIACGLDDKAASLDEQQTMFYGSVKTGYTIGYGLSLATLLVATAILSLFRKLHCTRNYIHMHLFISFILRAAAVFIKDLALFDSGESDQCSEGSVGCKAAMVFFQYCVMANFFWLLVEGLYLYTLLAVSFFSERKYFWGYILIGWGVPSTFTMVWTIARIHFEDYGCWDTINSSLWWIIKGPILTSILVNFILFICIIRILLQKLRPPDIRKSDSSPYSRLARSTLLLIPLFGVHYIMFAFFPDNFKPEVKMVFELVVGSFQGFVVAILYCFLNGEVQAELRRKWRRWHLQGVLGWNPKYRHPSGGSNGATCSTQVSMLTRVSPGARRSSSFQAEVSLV
How it was run: as §1

human PAC1 = molecular target: T3, human PAC1 (Homo sapiens, UniProt P41586); assay: Filter binding assay, membranes of cells transiently transfected with human PAC1, 125I-labeled PACAP-27 tracer (Table 2); parameters: expressed in transfected cells; details: read-out: Human PAC1 Receptor Binding
T3 sequence (P41586 21-468): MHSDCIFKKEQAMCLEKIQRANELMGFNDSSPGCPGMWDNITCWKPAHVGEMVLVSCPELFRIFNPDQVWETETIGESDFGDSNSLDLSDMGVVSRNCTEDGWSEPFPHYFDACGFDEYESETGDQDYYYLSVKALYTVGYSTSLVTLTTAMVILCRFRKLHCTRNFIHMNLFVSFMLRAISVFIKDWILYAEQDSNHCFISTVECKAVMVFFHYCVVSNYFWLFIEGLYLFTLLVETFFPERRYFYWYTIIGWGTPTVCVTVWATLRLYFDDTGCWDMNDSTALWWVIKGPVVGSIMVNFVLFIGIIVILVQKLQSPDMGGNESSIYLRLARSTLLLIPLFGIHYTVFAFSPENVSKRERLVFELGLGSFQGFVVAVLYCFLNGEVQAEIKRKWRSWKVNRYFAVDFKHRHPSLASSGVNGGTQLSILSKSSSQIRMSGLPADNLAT
How it was run: as §1

Q: For “Hexanoyl-HSDAVFTDNYTRLRKQVAAKRYLQSIKNKRYGGPSSGAPPPS [Agonist P182]”, which EC50 (human VPAC2 [1]) is on record?
A: Its EC50 is 0.29 nM.

Q: And the IC50 (human VPAC2 [2])?
A: Its IC50 is 0.17 nM.

Q: And the “Rat Serum Stability (estimated purity in % after 18 hours)” value [3]?
A: Its value is 0.15%.

Q: What about the IC50 (human VPAC1) of the same compound?
A: The IC50 was 205 nM.

Q: And the IC50 (human PAC1)?
A: Its IC50 is 429 nM.

Q: Which EC50 (human VPAC2 [1]) does the source give for CCCCCC(=O)N[C@@H](Cc1c[nH]cn1)C(=O)N[C@@H](CO)C(=O)N[C@@H](CC(=O)O)C(=O)N[C@@H](C)C(=O)N[C@H](C(=O)N[C@@H](Cc1ccccc1)C(=O)N[C@H](C(=O)N[C@@H](CC(=O)O)C(=O)N[C@@H](CC(N)=O)C(=O)N[C@@H](Cc1ccc(O)cc1)C(=O)N[C@H](C(=O)N[C@@H](CCCNC(=N)N)C(=O)N[C@@H](CC(C)C)C(=O)N[C@@H](CCCNC(=N)N)C(=O)NC(C)(C)C(=O)N[C@@H](CCC(N)=O)C(=O)N[C@H](C(=O)N[C@@H](C)C(=O)N[C@@H](C)C(=O)NC(C)(C)C(=O)N[C@@H](CCCCN)C(=O)N[C@@H](Cc1ccc(O)cc1)C(=O)N[C@@H](CC(C)C)C(=O)N[C@@H](CCC(N)=O)C(=O)N[C@@H](CO)C(=O)N[C@H](C(=O)N[C@@H](CCCCN)C(=O)N[C@@H](CCC(N)=O)C(=O)NCC(=O)NCC(=O)N1CCC[C@H]1C(=O)N[C@@H](CO)C(=O)N[C@@H](CO)C(=O)NCC(=O)N[C@@H](C)C(=O)N1CCC[C@H]1C(=O)N1CCC[C@H]1C(=O)N1CCC[C@H]1C(=O)N[C@@H](CO)C(=O)O)[C@@H](C)CC)C(C)C)[C@@H](C)O)[C@@H](C)O)C(C)C [Agonist P297] (Hexanoyl-HSDAVFTDNYTRLR[Aib]QVAA[Aib]KYLQSIKQGGPSSGAPPPS-OH; C-terminus assumed) here?
A: The EC50 was 0.36 nM.

Q: And the IC50 (human VPAC2 [2])?
A: The IC50 was 1.95 nM.

Q: And the “Rat Serum Stability (estimated purity in % after 18 hours)” value [3]?
A: Its value is 21.17%.

Q: What about the IC50 (human VPAC1) of the same compound?
A: The IC50 was over 3000 nM.

Q: What about the IC50 (human PAC1) of the same compound?
A: The IC50 was over 25000 nM.

Q: What does the source list for “Hexanoyl-HSDAVFTDNYTRLQ[Aib]QVAAKKYLQSIKNKRYGGPSSGAPPPS [Agonist P258]”?
A: EC50 (human VPAC2 [1]): 0.17 nM; IC50 (human VPAC2 [2]): 0.63 nM; Rat Serum Stability (estimated purity in % after 18 hours) [3]: 9.47%; IC50 (human VPAC1): > 3000 nM; IC50 (human PAC1): > 25000 nM

Q: For CCCCCC(=O)N[C@@H](Cc1c[nH]cn1)C(=O)N[C@@H](CO)C(=O)N[C@@H](CC(=O)O)C(=O)N[C@@H](C)C(=O)N[C@H](C(=O)N[C@@H](Cc1ccccc1)C(=O)N[C@H](C(=O)N[C@@H](CC(=O)O)C(=O)N[C@@H](CC(N)=O)C(=O)N[C@@H](Cc1ccc(O)cc1)C(=O)N[C@H](C(=O)N[C@@H](CCCNC(=N)N)C(=O)N[C@@H](CC(C)C)C(=O)N[C@@H](CCCNC(=N)N)C(=O)NC(C)(C)C(=O)N[C@@H](CCC(N)=O)C(=O)N[C@H](C(=O)N[C@@H](C)C(=O)N[C@@H](C)C(=O)N[C@@H](CCCCN)C(=O)NC(C)(C)C(=O)N[C@@H](Cc1ccc(O)cc1)C(=O)N[C@@H](CC(C)C)C(=O)N[C@@H](CCC(N)=O)C(=O)N[C@@H](CO)C(=O)N[C@H](C(=O)N[C@@H](CCCCN)C(=O)N[C@@H](CCC(N)=O)C(=O)NCC(=O)NCC(=O)N1CCC[C@H]1C(=O)N[C@@H](CO)C(=O)N[C@@H](CO)C(=O)NCC(=O)N[C@@H](C)C(=O)N1CCC[C@H]1C(=O)N1CCC[C@H]1C(=O)N1CCC[C@H]1C(=O)N[C@@H](CO)C(=O)O)[C@@H](C)CC)C(C)C)[C@@H](C)O)[C@@H](C)O)C(C)C [Agonist P298] (Hexanoyl-HSDAVFTDNYTRLR[Aib]QVAAK[Aib]YLQSIKQGGPSSGAPPPS-OH; C-terminus assumed), which EC50 (human VPAC2 [1]) is on record?
A: The EC50 was 0.5 nM.

Q: What about the IC50 (human VPAC2 [2]) of the same compound?
A: The IC50 was 8.2 nM.

Q: What about the “Rat Serum Stability (estimated purity in % after 18 hours)” value [3] of the same compound?
A: Its value is 30.97%.

Q: And the IC50 (human VPAC1)?
A: Its IC50 is over 3000 nM.

Q: And the IC50 (human PAC1)?
A: The IC50 was over 25000 nM.

Q: Which EC50 (human VPAC2 [1]) does the source give for “Hexanoyl-HVDAVFTDNYTRLRKQVAAKKYLQSIKNKRYGGPSSGAPPPS [Agonist P99]” here?
A: Its EC50 is 0.14 nM.

Q: And the IC50 (human VPAC2 [2])?
A: The IC50 was 1.72 nM.

Q: What about the “Rat Serum Stability (estimated purity in % after 18 hours)” value [3] of the same compound?
A: The value was 0.61%.

Q: And the IC50 (human VPAC1)?
A: The IC50 was 394 nM.

Q: What about the IC50 (human PAC1) of the same compound?
A: The IC50 was 2060 nM.

Q: Which EC50 (human VPAC2 [1]) does the source give for “Hexanoyl-HSDAVFTDNYTRLRKQVAALKYLQSIKNKRYGGPSSGAPPPS [Agonist P151]” here?
A: Its EC50 is 0.07 nM.

Q: And the IC50 (human VPAC2 [2])?
A: The IC50 was 0.72 nM.

Q: What about the “Rat Serum Stability (estimated purity in % after 18 hours)” value [3] of the same compound?
A: Its value is 0.35%.

Q: What about the IC50 (human VPAC1) of the same compound?
A: The IC50 was 204 nM.

Q: And the IC50 (human PAC1)?
A: The IC50 was 720 nM.

Q: With “Hexanoyl-HSDAVFTDNYTRLRKQVAAWKYLQSIKNKRYGGPSSGAPPPS [Agonist P153]” as the compound, how does the EC50 (human VPAC2 [1]) read?
A: The EC50 was 0.11 nM.

Q: And the IC50 (human VPAC2 [2])?
A: The IC50 was 0.7 nM.

Q: What about the “Rat Serum Stability (estimated purity in % after 18 hours)” value [3] of the same compound?
A: Its value is under 0.16%.

Q: And the IC50 (human VPAC1)?
A: The IC50 was 181 nM.

Q: What about the IC50 (human PAC1) of the same compound?
A: Its IC50 is 1130 nM.
